This note sets out measurements from patent US7491794B2, “Macrocyclic compounds as inhibitors of viral replication” (Intermune, Inc., priority 2003, dated 2009).

Assay [1] concerns HCV sub-genomic replicon, GS4.3. Nature of the assay: Quantitation by ELISA of NPTII in the HCV sub-genomic replicon, GS4.3, Section B. The assay is classed as cell-based. As to conditions: Hepatitis C virus; GS4.3 cells, 72 h incubation; read-out: Replicon EC50. Summed up:
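NPTII marker protein in lysates was quantified by ELISA read at 450 nm after 72 h inhibitor exposure (3-fold series, final DMSO 1%, G418-free medium) of HuH-7 cells stably harbouring the subgenomic HCV replicon. Values relative to DMSO-treated controls; 4-parameter curves gave EC50.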

The next assay concerns the target T1, NS3-NS4A protease (Hepatitis C virus genotype 1a, UniProt P27958).
T1 construct: Recombinant E. coli or Baculovirus full-length NS3 was diluted to 3.33 μM with assay buffer; made in house; host or cells: E. coli or baculovirus (BV) system
As to the kind of experiment: NS3-NS4A protease assay (NS3 inhibition assay, RETS1 substrate), Section B. The assay is classed as biochemical. Put shortly: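 Kinetic fluorescence read (335 nm excitation, 495 nm emission, 30 min) of RETS1 cleavage by NS3/NS4A-2 complex, 2 nM E. coli or 3 nM baculovirus NS3, after 10 min room-temperature compound pre-incubation. Four-parameter-fit IC50s converted to Ki by Cheng–Prusoff, Ki=IC50/(1+[S]/Km).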

Where two headings read alike, the source gives them in different places.

T1 sequence (P27958 1027-1657): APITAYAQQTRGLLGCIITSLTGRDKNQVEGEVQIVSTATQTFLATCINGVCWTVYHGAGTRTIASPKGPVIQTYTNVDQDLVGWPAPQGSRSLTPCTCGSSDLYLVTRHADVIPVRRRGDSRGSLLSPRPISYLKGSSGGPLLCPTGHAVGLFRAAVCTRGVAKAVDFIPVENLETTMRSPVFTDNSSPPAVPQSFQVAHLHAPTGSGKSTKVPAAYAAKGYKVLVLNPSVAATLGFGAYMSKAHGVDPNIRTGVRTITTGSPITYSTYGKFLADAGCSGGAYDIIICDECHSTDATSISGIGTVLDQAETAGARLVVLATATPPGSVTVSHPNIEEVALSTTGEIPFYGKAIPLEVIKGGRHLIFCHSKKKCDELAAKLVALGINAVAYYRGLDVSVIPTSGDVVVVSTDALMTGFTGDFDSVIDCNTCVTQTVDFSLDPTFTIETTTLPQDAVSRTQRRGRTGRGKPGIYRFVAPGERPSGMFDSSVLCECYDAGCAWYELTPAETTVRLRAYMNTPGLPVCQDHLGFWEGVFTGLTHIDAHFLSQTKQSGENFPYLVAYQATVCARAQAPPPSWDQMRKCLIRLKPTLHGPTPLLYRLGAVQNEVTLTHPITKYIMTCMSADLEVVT

`CN(C)c1cccc2c1CCN(C(=O)O[C@@H]1C[C@H]3C(=O)N[C@]4(C(=O)O)C[C@H]4/C=C\CCCCC[C@H](NC(=O)OC(C)(C)C)C(=O)N3C1)C2` [AR00315997, (1S,4R,6S,14S,18R)-14-tert-Butoxycarbonylamino-18-(5-dimethylamino-3,4-dihydro-1H-isoquinoline-2-carbonyloxy)-2,15-dioxo-3,16-diaza-tricyclo[14.3.0.0^4,6]nonadec-7-ene-4-carboxylic acid]: in assay [1], the EC50 is less than 10000 nM. In addition, at NS3-NS4A protease (read-out: NS3-NS4A IC50), the IC50 was less than 1000 nM.
With `CC(C)(C)OC(=O)N[C@H]1CCCCC/C=C\[C@@H]2C[C@@]2(C(=O)O)NC(=O)[C@@H]2C[C@@H](NC(=S)N3CCc4ccccc4C3)CN2C1=O` [AR00304010, (1S,4R,6S,14S,18R)-14-tert-Butoxycarbonylamino-18-[(3,4-dihydro-1H-isoquinoline-2-carbothioyl)-amino]-2,15-dioxo-3,16-diaza-tricyclo[14.3.0.0^4,6]nonadec-7-ene-4-carboxylic acid], in assay [1], the EC50 is less than 10000 nM. The 50% inhibitory concentration (IC50) on NS3-NS4A protease (read-out: NS3-NS4A IC50) is less than 1000 nM.
The corresponding values for `CC(C)(C)OC(=O)N[C@H]1CCCCCC=C[C@@H]2C[C@@]2(C(=O)O)NC(=O)[C@@H]2C[C@@H](OC(=O)N3Cc4ccccc4C(C)(C)C3)CN2C1=O` [AR00304066, (1S,4R,6S,14S,18R)-14-tert-Butoxycarbonylamino-18-(4,4-dimethyl-3,4-dihydro-1H-isoquinoline-2-carbonyloxy)-2,15-dioxo-3,16-diaza-tricyclo[14.3.0.0^4,6]nonadec-7-ene-4-carboxylic acid] are less than 10000 nM and less than 1000 nM.
On the same counts, the results for `CC(C)(C)OC(=O)N[C@H]1CCCCC/C=C\[C@@H]2C[C@@]2(C(=O)NS(=O)(=O)C2CC2)NC(=O)[C@@H]2C[C@@H](OC(=O)N3Cc4ccc(OCCN5CCOCC5)cc4C3)CN2C1=O` [AR00345090, (1S,4R,6S,14S,18R)-5-(2-Morpholin-4-yl-ethoxy)-1,3-dihydro-isoindole-2-carboxylic acid 14-tert-butoxycarbonylamino-4-cyclopropanesulfonylaminocarbonyl-2,15-dioxo-3,16-diaza-tricyclo[14.3.0.0^4,6]nonadec-7-en-18-yl ester] are less than 100 nM and less than 100 nM.
Regarding `CC(C)(C)CC(=O)N[C@H]1CCCCC/C=C\[C@@H]2C[C@@]2(C(=O)NS(=O)(=O)C2CC2)NC(=O)[C@@H]2C[C@@H](OC(=O)N3Cc4cccc(F)c4C3)CN2C1=O` [AR00338070, (1S,4R,6S,14S,18R)-4-Fluoro-1,3-dihydro-isoindole-2-carboxylic acid 4-cyclopropanesulfonylaminocarbonyl-14-(3,3-dimethyl-butyrylamino)-2,15-dioxo-3,16-diaza-tricyclo[14.3.0.0^4,6]nonadec-7-en-18-yl ester], the half-maximal effective concentration (EC50) in assay [1] was less than 100 nM. Further, the IC50 on NS3-NS4A protease (read-out: NS3-NS4A IC50) is less than 100 nM.
In the case of `CN(C)c1ccc(S(=O)(=O)NC(=O)[C@@]23C[C@H]2/C=C\CCCCC[C@H](NC(=O)OC(C)(C)C)C(=O)N2C[C@H](OC(=O)N4Cc5ccccc5C4)C[C@H]2C(=O)N3)cc1` [AR00365572, (1S,4R,6S,14S,18R)-1,3-Dihydro-isoindole-2-carboxylic acid 14-tert-butoxycarbonylamino-4-(4-dimethylamino-benzenesulfonylaminocarbonyl)-2,15-dioxo-3,16-diaza-tricyclo[14.3.0.0^4,6]nonadec-7-en-18-yl ester], the EC50 in assay [1] was less than 100 nM. The IC50 at NS3-NS4A protease (read-out: NS3-NS4A IC50) is less than 100 nM.
For the compound `O=C(N[C@H](C(=O)N[C@H]1CCCCC/C=C\[C@@H]2C[C@@]2(C(=O)NS(=O)(=O)C2CC2)NC(=O)[C@@H]2C[C@@H](OC(=O)N3Cc4cccc(F)c4C3)CN2C1=O)C1CCCCC1)c1cnccn1` [AR00340303, (1S,4R,6S,14S,18R)-4-Fluoro-1,3-dihydro-isoindole-2-carboxylic acid 14-{2-cyclohexyl-2-[(pyrazine-2-carbonyl)-amino]-acetylamino}-4-cyclopropanesulfonylaminocarbonyl-2,15-dioxo-3,16-diaza-tricyclo[14.3.0.0^4,6]nonadec-7-en-18-yl ester], the EC50 in assay [1] was less than 1000 nM. The compound further had an IC50 against NS3-NS4A protease of less than 100 nM.
Consider `CC(=O)Nc1nnc(S(=O)(=O)NC(=O)[C@@]23C[C@H]2/C=C\CCCCC[C@H](NC(=O)OC(C)(C)C)C(=O)N2C[C@H](OC(=O)N4Cc5ccccc5C4)C[C@H]2C(=O)N3)s1` [AR00334247, (1S,4R,6S,14S,18R)-1,3-Dihydro-isoindole-2-carboxylic acid 4-(5-acetylamino-[1,3,4]thiadiazole-2-sulfonylaminocarbonyl)-14-tert-butoxycarbonylamino-2,15-dioxo-3,16-diaza-tricyclo[14.3.0.0^4,6]nonadec-7-en-18-yl ester], for which the half-maximal effective concentration (EC50) in assay [1] was less than 1000 nM. In addition, on NS3-NS4A protease (read-out: NS3-NS4A IC50), the IC50 was less than 100 nM.
On to `CC(=O)N[C@H](C(=O)N[C@H]1CCCCC/C=C\[C@@H]2C[C@@]2(C(=O)NS(=O)(=O)C2CC2)NC(=O)[C@@H]2C[C@@H](OC(=O)N3Cc4cccc(F)c4C3)CN2C1=O)C1CCCCC1` [AR00340122, (1S,4R,6S,14S,18R)-4-Fluoro-1,3-dihydro-isoindole-2-carboxylic acid 14-(2-acetylamino-2-cyclohexyl-acetylamino)-4-cyclopropanesulfonylaminocarbonyl-2,15-dioxo-3,16-diaza-tricyclo[14.3.0.0^4,6]nonadec-7-en-18-yl ester], for which the half-maximal effective concentration (EC50) in assay [1] is less than 1000 nM. The compound further displayed an IC50 on NS3-NS4A protease of less than 100 nM.
With `COCC1c2cccc(F)c2CCN1C(=O)O[C@@H]1CC2C(=O)N[C@]3(C(=O)NS(=O)(=O)C4CC4)C[C@H]3/C=C\CCCCC[C@H](NC(=O)OC(C)(C)C)C(=O)N2C1` (stereo partly drawn) [AR00365193, (1S,4R,6S,14S,18R)-5-Fluoro-1-methoxymethyl-3,4-dihydro-1H-isoquinoline-2-carboxylic acid 14-tert-butoxycarbonylamino-4-cyclopropanesulfonylaminocarbonyl-2,15-dioxo-3,16-diaza-tricyclo[14.3.0.0^4,6]nonadec-7-en-18-yl ester], the 50% effective concentration (EC50) in assay [1] is less than 100 nM. In addition, the IC50 on NS3-NS4A protease (read-out: NS3-NS4A IC50) was less than 100 nM.
In the case of `O=C(N[C@H]1CCCCC/C=C\[C@@H]2C[C@@]2(C(=O)O)NC(=O)[C@@H]2C[C@@H](OC(=O)N3Cc4ccccc4C3)CN2C1=O)O[C@@H]1CCOC1` [AR00320074, (1S,4R,6S,14S,18R)-18-(1,3-Dihydro-isoindole-2-carbonyloxy)-2,15-dioxo-14-(tetrahydro-furan-3R-yloxycarbonylamino)-3,16-diaza-tricyclo[14.3.0.0^4,6]nonadec-7-ene-4-carboxylic acid], in assay [1], the EC50 was less than 10000 nM. The half-maximal inhibitory concentration (IC50) on NS3-NS4A protease (read-out: NS3-NS4A IC50) is less than 100 nM.
`O=C(N[C@H]1CCCCC/C=C\[C@@H]2C[C@@]2(C(=O)NS(=O)(=O)C2CC2)NC(=O)[C@@H]2C[C@@H](OC(=O)N3Cc4ccccc4C3)CN2C1=O)O[C@@H]1CCOC1` [AR00320079, (1S,4R,6S,14S,18R)-1,3-Dihydro-isoindole-2-carboxylic acid 4-cyclopropanesulfonylaminocarbonyl-2,15-dioxo-14-(tetrahydro-furan-3-yloxycarbonylamino)-3,16-diaza-tricyclo[14.3.0.0^4,6]nonadec-7-en-18-yl ester]: the concentration giving a half-maximal response (EC50) in assay [1] was less than 100 nM. For the same compound, on NS3-NS4A protease (read-out: NS3-NS4A IC50), the concentration for half-maximal inhibition (IC50) was less than 100 nM.
For `COC(=O)c1ccc2c(c1)CN(C(=O)O[C@@H]1C[C@H]3C(=O)N[C@]4(C(=O)NS(=O)(=O)C5CC5)C[C@H]4/C=C\CCCCC[C@H](NC(=O)OC(C)(C)C)C(=O)N3C1)C2` [AR00365083, (1S,4R,6S,14S,18R)-1,3-Dihydro-isoindole-2,5-dicarboxylic acid 2-(14-tert-butoxycarbonylamino-4-cyclopropanesulfonylaminocarbonyl-2,15-dioxo-3,16-diaza-tricyclo[14.3.0.0^4,6]nonadec-7-en-18-yl) ester 5-methyl ester], the EC50 in assay [1] was less than 100 nM. The IC50 at NS3-NS4A protease (read-out: NS3-NS4A IC50) is less than 100 nM.
Regarding `CC(C)(C)OC(=O)N[C@H]1CCCCC/C=C\[C@@H]2C[C@@]2(C(=O)NS(=O)(=O)C2CC2)NC(=O)[C@@H]2C[C@@H](OC(=O)N3Cc4ccc(O)cc4C3)CN2C1=O` [AR00364936, (1S,4R,6S,14S,18R)-5-Hydroxy-1,3-dihydro-isoindole-2-carboxylic acid 14-tert-butoxycarbonylamino-4-cyclopropanesulfonylaminocarbonyl-2,15-dioxo-3,16-diaza-tricyclo[14.3.0.0^4,6]nonadec-7-en-18-yl ester], the EC50 in assay [1] is less than 1000 nM. In addition, the IC50 on NS3-NS4A protease (read-out: NS3-NS4A IC50) was less than 100 nM.
For the compound `CC(C)(C)OC(=O)N[C@H]1CCCCC/C=C\[C@@H]2C[C@@]2(C(=O)NS(=O)(=O)C2CC2)NC(=O)[C@@H]2C[C@@H](OC(=O)N3CCc4ccccc4C3CN3CCCCC3)CN2C1=O` (stereo partly drawn) [AR00311815, (1S,4R,6S,14S,18R)-1-Piperidin-1-ylmethyl-3,4-dihydro-1H-isoquinoline-2-carboxylic acid 14-tert-butoxycarbonylamino-4-cyclopropanesulfonylaminocarbonyl-2,15-dioxo-3,16-diaza-tricyclo[14.3.0.0^4,6]nonadec-7-en-18-yl ester], the EC50 in assay [1] is less than 1000 nM. For the same compound, the half-maximal inhibitory concentration (IC50) on NS3-NS4A protease (read-out: NS3-NS4A IC50) was less than 100 nM.
The corresponding values for `CC1CN(C(=O)O[C@@H]2C[C@H]3C(=O)N[C@]4(C(=O)NS(=O)(=O)C5CC5)C[C@H]4/C=C\CCCCC[C@H](NC(=O)NC(C)(C)C)C(=O)N3C2)Cc2ccccc21` (stereo partly drawn) [AR00314656, (1S,4R,6S,14S,18R)-4-Methyl-3,4-dihydro-1H-isoquinoline-2-carboxylic acid 14-(3-tert-butyl-ureido)-4-cyclopropanesulfonylaminocarbonyl-2,15-dioxo-3,16-diaza-tricyclo[14.3.0.0^4,6]nonadec-7-en-18-yl ester] are less than 100 nM and less than 100 nM.

The EC50 is the concentration at which the effect is half-maximal. By IC50 is commonly meant the concentration needed to halve the response being measured.
